In patent publication US10399933B2, “Inhibitors of indoleamine-2,3-dioxygenase for the treatment of cancer” (BRISTOL-MYERS SQUIBB COMPANY, priority 2015, dated 2019):

Target: human IDO1 (Homo sapiens, UniProt P14902)
Experiment: Human IDO-1 inhibitory activity in Hela cells (interferon-gamma stimulated)
Type: cell-based
Design: endogenous in cells; host or cells: HeLa cells stimulated with interferon-gamma
Conditions: 18 hours, unstimulated wells = 100% inhibition
Method: HeLa cells were seeded at 20,000 cells per 30 μL per well with RPMI/phenol red free media containing 10% FBS in a 384-well tissue culture plate (black with clear bottoms). 50 nL of compound was added to cells and incubated at 37° C. for one hour. 20 μL of the recombinant human Interferon-gamma (R&D System, Cat. #285-IF, at final concentration of 10 ng/ml) or recombinant murine Interferon-gamma (PEPROTECH® Inc., Cat. #315-05, final concentration of 5 ng/ml) was added to activate IDO signaling. The cells were incubated for 18 hours in 37° C. incubator with 5% CO2.
Compound treatment was stopped by adding 5 μl trichloroacetic acid to a final concentration of 3%. Subsequently, the cell plate was further incubated at 50° C. for 30 minute. An equal volume supernatant (20 μL) and 2% (w/v) Ehrlich reagent (4-dimethylaminobenzaldehyde) in glacial acetic acid were mixed in a new clear bottom 384-well plate. This plate was incubated at room temperature for 30 minutes. Absorbance at 490 nm was measured on Envision plate reader.
Compound IC50 values were calculated using counts from unstimulated (no INF-gamma treatment) wells as 100% inhibition. INF-gamma treatment without compound treatment as 0% inhibition.

human IDO1, sequence (P14902 whole entry): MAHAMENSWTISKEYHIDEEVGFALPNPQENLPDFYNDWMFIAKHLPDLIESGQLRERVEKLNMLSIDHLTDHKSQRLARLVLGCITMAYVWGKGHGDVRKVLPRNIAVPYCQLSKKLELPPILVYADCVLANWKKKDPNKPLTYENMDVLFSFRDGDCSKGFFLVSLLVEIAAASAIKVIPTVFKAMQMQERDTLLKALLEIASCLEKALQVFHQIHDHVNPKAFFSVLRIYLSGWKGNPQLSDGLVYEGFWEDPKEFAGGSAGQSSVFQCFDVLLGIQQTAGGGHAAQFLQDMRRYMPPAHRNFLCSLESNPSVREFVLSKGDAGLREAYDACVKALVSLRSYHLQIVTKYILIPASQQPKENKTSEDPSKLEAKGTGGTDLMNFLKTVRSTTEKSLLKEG

Row | Molecule | IC50 [nM]
1 | CCN(c1ccc([C@H](COC)CC(=O)O)cc1Nc1ccc(C#N)c(Cl)c1)C1CCOCC1 (single isomer, unassigned) [Example 418] | < 50
2 | CCN(c1ccc([C@H](COC)CC(=O)O)cc1Nc1ccc(C#N)c(C)n1)C1CCOCC1 (single isomer, unassigned) [Example 419] | > 50
3 | CCN(c1ccc([C@H](COC)CC(=O)O)cc1Nc1ccc(C#N)c(C(F)(F)F)c1)C1CCOCC1 (single isomer, unassigned) [Example 420] | > 50
4 | CCN(c1ccc([C@H](COC)CC(=O)O)cc1Nc1ccc(S(=O)(=O)CC)cc1)C1CCOCC1 (single isomer, unassigned) [Example 421] | > 50
5 | COCC(CC(=O)O)c1ccc(N2C[C@@H](C)O[C@@H](C)C2)c(Nc2ccc(Cl)cc2)c1 (single isomer, unassigned) [Example 604] | > 50
6 | COCC(CC(=O)O)c1ccc(N2C[C@@H](C)O[C@@H](C)C2)c(NC(=O)Nc2ccc(C#N)cc2)c1 (single isomer, unassigned) [Example 605 Diastereomer 2] | > 50
7 | COCC(CC(=O)O)c1ccc(N2C[C@@H](C)O[C@@H](C)C2)c(NC(=O)Nc2ccc(Cl)cc2F)c1 (single isomer, unassigned) [Example 607] | > 50
8 | CCC(CC(=O)O)c1ccc(N2CCN(C(=O)OC)CC2)c(Nc2ccc(C#N)cc2)c1 (single isomer, unassigned) [Example 668 Enantiomer 2, 3-(3-((4-Cyanophenyl)amino)-4-(4-(methoxycarbonyl)piperazin-1-yl)phenyl)pentanoic Acid] | > 50
9 | CCC(CC(=O)O)c1ccc(N2CCNCC2)c(Nc2ccc(C#N)cc2)c1 (single isomer, unassigned) [Example 671 Enantiomer 2, 3-(3-((4-Cyanophenyl)amino)-4-(piperazin-1-yl)phenyl) pentanoic Acid] | > 50
10 | CC(CC(=O)O)c1ccc(N2C[C@@H](C)O[C@@H](C)C2)c(NC(=O)Nc2ccc(Cl)cc2F)c1 (single isomer, unassigned) [Example 749 Enantiomer 2] | > 50
11 | CCN(c1cc(F)c(C(COC)CC(=O)O)cc1Nc1ccc(C#N)c(F)c1)C1CCOCC1 (single isomer, unassigned) [Example 853, 3-(5-((4-cyano-3-fluorophenyl)amino)-4-(ethyl(tetrahydro-2H-pyran-4-yl)amino)-2-fluorophenyl)-4-methoxybutanoic acid] | < 5
12 | CCN(c1cc(F)c(C(COC)CC(=O)O)cc1Nc1ccc(C#N)cc1F)C1CCOCC1 (single isomer, unassigned) [Example 854, 3-(5-((4-cyano-2-fluorophenyl)amino)-4-(ethyl(tetrahydro-2H-pyran-4-yl)amino)-2-fluorophenyl)-4-methoxybutanoic acid] | < 5
13 | CCC(CC(=O)O)c1ccc(N(CCOC)C2CCOCC2)c(Nc2ccc(Cl)cc2)c1 (single isomer, unassigned) [Example 1257 E2, 3-(3-((4-Chlorophenyl)amino)-4-((2-methoxyethyl)(tetrahydro-2H-pyran-4-yl)amino)phenyl)pentanoic Acid] | < 5
14 | CCC(CC(=O)O)c1ccc(N(CCOC)C2CCOCC2)c(NC(=O)Nc2ccc(C)cc2)c1 (single isomer, unassigned) [Example 1264 E2, 3-(4-((2-Methoxyethyl)(tetrahydro-2H-pyran-4-yl)amino)-3-(3-(p-tolyl)ureido)phenyl)pentanoic Acid] | > 50
15 | COCC(CC(=O)O)c1ccc(N2CCOC(C)C2)c(Nc2ccc(Cl)cc2)c1 (single isomer, unassigned) [Example 1311 D1, 3-(3-((4-Chlorophenyl)amino)-4-(2-methylmorpholino)phenyl)-4-methoxybutanoic Acid] | > 50
16 | COCC(CC(=O)O)c1ccc(N2CCOC(C)C2)c(NC(=O)Nc2ccc(Cl)cc2F)c1 (single isomer, unassigned) [Example 1314 D2, 3-(3-(3-(4-Chloro-2-fluorophenyl)ureido)-4-(2-methylmorpholino)phenyl)-4-methoxybutanoic Acid] | > 50
17 | COCC(CC(=O)O)c1ccc(N2CCOC(C)(C)C2)c(Nc2ccc(Cl)cc2)c1 (single isomer, unassigned) [Example 1315 E2, 3-(3-((4-Chlorophenyl)amino)-4-(2,2-dimethylmorpholino)phenyl)-4-methoxybutanoic Acid] | > 50
18 | COCC(CC(=O)O)c1ccc(N2CCOC(C)(C)C2)c(NC(=O)Nc2ccc(Cl)cc2F)c1 (single isomer, unassigned) [Example 1318 E2, 3-(3-(3-(4-Chloro-2-fluorophenyl)ureido)-4-(2,2-dimethylmorpholino)phenyl)-4-methoxybutanoic Acid] | > 50

Row | Molecule | IC50 [nM]
19 | CCC(CC(=O)O)c1ccc(N2CCOC(C)(C)C2)c(Nc2ccc(Cl)cc2)c1 (single isomer, unassigned) [Example 1319 E2, 3-(3-((4-Chlorophenyl)amino)-4-(2,2-dimethylmorpholino)phenyl)pentanoic Acid] | < 50
20 | CCC(CC(=O)O)c1ccc(N2CCOC(C)(C)C2)c(NC(=O)Nc2ccc(Cl)cc2F)c1 (single isomer, unassigned) [Example 1322 E2, 3-(3-(3-(4-Chloro-2-fluorophenyl)ureido)-4-(2,2-dimethylmorpholino)phenyl)pentanoic Acid] | > 50
21 | COC[C@@H](CC(=O)O)c1ccc(N2CCOc3ccccc32)c(Nc2ccc(C#N)cc2)c1 (single isomer, unassigned) [Example 1358] | > 50
22 | COC[C@H](CC(=O)O)c1ccc(N2CCOc3ccccc32)c(Nc2ccc(C#N)cc2)c1 (single isomer, unassigned) [Example 1359] | > 50
23 | CCN(c1ccc(C(COC(C)C)CC(=O)O)cc1Nc1ccc(F)cc1)C1CCS(=O)(=O)CC1 (stereo not drawn) [Example 340] | < 50
24 | (R)-3-(3-((4-chlorophenyl)amino)- 4-((1,1-dioxidotetrahydro-2H- thiopyran-4-yl)(ethyl)amino) phenyl)-4-isopropoxybutanoic acid [Example 330] | < 5
25 | (R)-3-(3-((4-cyano-3- methylphenyl)amino)-4- (ethyl(tetrahydro-2H-pyran-4- yl)amino)phenyl)-4- methoxybutanoic acid [Example 391] | < 50
26 | (R)-3-(4-((1,1-dioxidotetrahydro- 2H-thiopyran-4-yl)(ethyl)amino)- 3-((2-ethoxypyrimidin-5- yl)amino)phenyl)-4- isopropoxybutanoic acid [Example 333] | > 50
27 | (R)-3-(4-((1,1-dioxidotetrahydro- 2H-thiopyran-4-yl)(ethyl)amino)- 3-((2-methoxypyrimidin-5- yl)amino)phenyl)-4- isopropoxybutanoic acid [Example 332] | > 50
28 | (R)-3-(4-((1,1-dioxidotetrahydro- 2H-thiopyran-4-yl)(ethyl)amino)- 3-((4-fluorophenyl)amino)phenyl)- 4-isopropoxybutanoic acid [Example 331] | < 50
29 | (R)-3-(4-(ethyl(tetrahydro-2H- pyran-4-yl)amino)-3-((2- (tetrahydro-2H-pyran-4- yl)pyrimidin-5-yl)amino) phenyl)-4-methoxybutanoic acid [Example 403] | > 50
30 | (R)-3-(4-(ethyl(tetrahydro-2H- pyran-4-yl)amino)-3-((3- (1,1,2,2-tetrafluoroethoxy) phenyl)amino)phenyl)-4- methoxybutanoic acid [Example 398] | < 5
31 | (S)-3-(3-((4-chlorophenyl)amino)- 4-((1,1-dioxidotetrahydro-2H- thiopyran-4-yl)(ethyl)amino) phenyl)-4-isopropoxybutanoic acid [Example 325] | < 5
32 | (S)-3-(3-((4-cyano-3- ethoxyphenyl)amino)-4- (ethyl(tetrahydro-2H-pyran- 4-yl)amino)phenyl)-4- methoxybutanoic acid [Example 380] | < 50
33 | (S)-3-(4-((1,1-dioxidotetrahydro- 2H-thiopyran-4-yl)(ethyl)amino)- 3-((2-ethoxypyrimidin-5-yl)amino) phenyl)-4-isopropoxybutanoic acid [Example 328] | > 50
34 | (S)-3-(4-((1,1-dioxidotetrahydro- 2H-thiopyran-4-yl)(ethyl)amino)- 3-((2-methoxypyrimidin-5- yl)amino)phenyl)-4- isopropoxybutanoic acid [Example 327] | > 50
35 | (S)-3-(4-((1,1-dioxidotetrahydro- 2H-thiopyran-4-yl)(ethyl)amino)- 3-((4-fluorophenyl)amino)phenyl)- 4-isopropoxybutanoic acid [Example 326] | < 50
36 | (S)-3-(4-(ethyl(tetrahydro- 2H-pyran-4-yl)amino)-3-((2- (tetrahydro-2H-pyran-4- yl)pyrimidin-5-yl)amino) phenyl)-4-methoxybutanoic acid [Example 366] | > 50
